Data taken from the supplement of paper PMC10307832.

Tests used:
Assay in all cases: relative viability (nuclei count vs DMSO), 5 days (fraction); higher = more cells survive
[1] = system: A-427
Outline: (§1)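 Lung cancer cell lines in 1536-well plates got either a single drug or a fixed anchor-drug dose together with five library-drug doses (not always all listed) in √10 steps, by pin tool, on the day after seeding. Nuclei were counted after 5 days, and relative viability is the treated-to-vehicle ratio of nuclei counts. Values are medians of duplicate plates.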

[2] = system: NCI-H1944
Outline: as §1

[3] = system: NCI-H727
Outline: as §1

[4] = system: NCI-H2009
Outline: as §1

[5] = system: NCI-H1792
Outline: as §1

[6] = system: NCI-H1993
Outline: as §1

[7] = system: SK-MES-1
Outline: as §1

[8] = system: NCI-H2170
Outline: as §1

[9] = system: EMC-BAC-2
Outline: as §1

[10] = system: LK-2
Outline: as §1

[11] = system: HARA
Outline: as §1

[12] = system: NCI-H322M
Outline: as §1

[13] = system: NCI-H2228
Outline: as §1

[14] = system: SW 1573
Outline: as §1

[15] = system: NCI-H3122
Outline: as §1

[16] = system: HOP-62
Outline: as §1

[17] = system: PC-3 [JPC-3]
Outline: as §1

[18] = system: LXF-289
Outline: as §1

[19] = system: NCI-H596
Outline: as §1

## O=c1cc(N2CCOCC2)oc2c(-c3cccc4c3sc3ccccc34)cccc12 + CC1(C)CCC(c2ccc(Cl)cc2)=C(CN2CCN(c3ccc(C(=O)NS(=O)(=O)c4ccc(N[C@H](CCN5CCOCC5)CSc5ccccc5)c(S(=O)(=O)C(F)(F)F)c4)cc3)CC2)C1 [Navitoclax] (partner 0.5 µM)
[1]; first compound 0.01 µM
  relative viability: 0.937
[1]; first compound 0.03162 µM
  relative viability: 0.935
[1]; first compound 0.1 µM
  relative viability: 0.956
[1]; first compound 0.3162 µM
  relative viability: 0.866
[1]; first compound 1 µM
  relative viability: 0.959
[2]; first compound 0.01 µM
  relative viability: 1.03
[2]; first compound 0.03162 µM
  relative viability: 1.1
[2]; first compound 0.1 µM
  relative viability: 1.07
[2]; first compound 0.3162 µM
  relative viability: 1.09
[2]; first compound 1 µM
  relative viability: 1.05
[3]; first compound 0.01 µM
  relative viability: 0.47
[3]; first compound 0.03162 µM
  relative viability: 0.512
[3]; first compound 0.1 µM
  relative viability: 0.39
[3]; first compound 0.3162 µM
  relative viability: 0.398
[3]; first compound 1 µM
  relative viability: 0.438
[4]; first compound 0.01 µM
  relative viability: 1.14
[4]; first compound 0.03162 µM
  relative viability: 1.16
[4]; first compound 0.1 µM
  relative viability: 1.14
[4]; first compound 0.3162 µM
  relative viability: 1.19
[4]; first compound 1 µM
  relative viability: 1.05
[5]; first compound 0.01 µM
  relative viability: 0.604
[5]; first compound 0.03162 µM
  relative viability: 0.595
[5]; first compound 0.1 µM
  relative viability: 0.368
[5]; first compound 0.3162 µM
  relative viability: 0.564
[5]; first compound 1 µM
  relative viability: 0.556
[6]; first compound 0.01 µM
  relative viability: 1.02
[6]; first compound 0.03162 µM
  relative viability: 0.953
[6]; first compound 0.1 µM
  relative viability: 0.976
[6]; first compound 0.3162 µM
  relative viability: 0.921
[6]; first compound 1 µM
  relative viability: 0.887
[7]; first compound 0.01 µM
  relative viability: 1.28
[7]; first compound 0.03162 µM
  relative viability: 1.26
[7]; first compound 0.1 µM
  relative viability: 1.43
[7]; first compound 0.3162 µM
  relative viability: 1.26
[7]; first compound 1 µM
  relative viability: 1.13
[8]; first compound 0.01 µM
  relative viability: 0.69
[8]; first compound 0.03162 µM
  relative viability: 0.741
[8]; first compound 0.1 µM
  relative viability: 0.599
[8]; first compound 0.3162 µM
  relative viability: 0.62
[8]; first compound 1 µM
  relative viability: 0.605
[9]; first compound 0.01 µM
  relative viability: 1.09
[9]; first compound 0.03162 µM
  relative viability: 1.13
[9]; first compound 0.1 µM
  relative viability: 1.18
[9]; first compound 0.3162 µM
  relative viability: 1.16
[9]; first compound 1 µM
  relative viability: 1.17
[10]; first compound 0.01 µM
  relative viability: 0.882
[10]; first compound 0.03162 µM
  relative viability: 0.886
[10]; first compound 0.1 µM
  relative viability: 0.896
[10]; first compound 0.3162 µM
  relative viability: 0.874
[10]; first compound 1 µM
  relative viability: 1.07
[11]; first compound 0.01 µM
  relative viability: 1.11
[11]; first compound 0.03162 µM
  relative viability: 1.13
[11]; first compound 0.1 µM
  relative viability: 1.15
[11]; first compound 0.3162 µM
  relative viability: 1.17
[11]; first compound 1 µM
  relative viability: 1.14
[12]; first compound 0.01 µM
  relative viability: 1.34
[12]; first compound 0.03162 µM
  relative viability: 1.17
[12]; first compound 0.3162 µM
  relative viability: 1.19
[12]; first compound 1 µM
  relative viability: 1.12
[13]; first compound 0.03162 µM
  relative viability: 0.895
[13]; first compound 0.1 µM
  relative viability: 1.16
[13]; first compound 0.3162 µM
  relative viability: 0.897
[13]; first compound 1 µM
  relative viability: 1.19
[14]; first compound 0.01 µM
  relative viability: 1.04
[14]; first compound 0.03162 µM
  relative viability: 1
[14]; first compound 0.1 µM
  relative viability: 1.15
[14]; first compound 0.3162 µM
  relative viability: 1.06
[14]; first compound 1 µM
  relative viability: 0.832
[15]; first compound 0.01 µM
  relative viability: 1.02
[15]; first compound 0.03162 µM
  relative viability: 0.981
[15]; first compound 0.1 µM
  relative viability: 1.02
[15]; first compound 0.3162 µM
  relative viability: 0.966
[15]; first compound 1 µM
  relative viability: 0.985
[16]; first compound 0.01 µM
  relative viability: 0.935
[16]; first compound 0.03162 µM
  relative viability: 1.08
[16]; first compound 0.1 µM
  relative viability: 1.02
[16]; first compound 0.3162 µM
  relative viability: 0.854
[16]; first compound 1 µM
  relative viability: 1.07
[17]; first compound 0.01 µM
  relative viability: 0.824
[17]; first compound 0.03162 µM
  relative viability: 0.784
[17]; first compound 0.1 µM
  relative viability: 0.795
[17]; first compound 0.3162 µM
  relative viability: 0.783
[17]; first compound 1 µM
  relative viability: 0.777
[18]; first compound 0.01 µM
  relative viability: 0.924
[18]; first compound 0.03162 µM
  relative viability: 0.937
[18]; first compound 0.1 µM
  relative viability: 0.938
[18]; first compound 0.3162 µM
  relative viability: 0.865
[18]; first compound 1 µM
  relative viability: 0.916
[19]; first compound 0.01 µM
  relative viability: 0.928
[19]; first compound 0.03162 µM
  relative viability: 0.945
[19]; first compound 0.1 µM
  relative viability: 0.841
[19]; first compound 0.3162 µM
  relative viability: 0.967
[19]; first compound 1 µM
  relative viability: 1.17

## CCN(CC)CCCCNc1ncc2cc(-c3cc(OC)cc(OC)c3)c(NC(=O)NC(C)(C)C)nc2n1 + CC1(C)CCC(c2ccc(Cl)cc2)=C(CN2CCN(c3ccc(C(=O)NS(=O)(=O)c4ccc(N[C@H](CCN5CCOCC5)CSc5ccccc5)c(S(=O)(=O)C(F)(F)F)c4)cc3)CC2)C1 [Navitoclax] (partner 0.5 µM)
[1]; first compound 0.01 µM
  relative viability: 0.991
[1]; first compound 0.03162 µM
  relative viability: 1.03
[1]; first compound 0.1 µM
  relative viability: 1.11
[1]; first compound 0.3162 µM
  relative viability: 1.08
[1]; first compound 1 µM
  relative viability: 0.908
[2]; first compound 0.01 µM
  relative viability: 1.18
[2]; first compound 0.03162 µM
  relative viability: 1.02
[2]; first compound 0.1 µM
  relative viability: 1.08
[2]; first compound 0.3162 µM
  relative viability: 1.09
[2]; first compound 1 µM
  relative viability: 1.02
[3]; first compound 0.01 µM
  relative viability: 0.443
[3]; first compound 0.03162 µM
  relative viability: 0.336
[3]; first compound 0.1 µM
  relative viability: 0.428
[3]; first compound 0.3162 µM
  relative viability: 0.454
[3]; first compound 1 µM
  relative viability: 0.387
[4]; first compound 0.01 µM
  relative viability: 1.25
[4]; first compound 0.03162 µM
  relative viability: 1.14
[4]; first compound 0.1 µM
  relative viability: 1.21
[4]; first compound 0.3162 µM
  relative viability: 1.31
[4]; first compound 1 µM
  relative viability: 1.11
[5]; first compound 0.01 µM
  relative viability: 0.688
[5]; first compound 0.03162 µM
  relative viability: 0.739
[5]; first compound 0.1 µM
  relative viability: 0.712
[5]; first compound 0.3162 µM
  relative viability: 1.49
[5]; first compound 1 µM
  relative viability: 0.19
[6]; first compound 0.01 µM
  relative viability: 0.904
[6]; first compound 0.03162 µM
  relative viability: 0.954
[6]; first compound 0.1 µM
  relative viability: 0.963
[6]; first compound 0.3162 µM
  relative viability: 1.07
[6]; first compound 1 µM
  relative viability: 0.895
[7]; first compound 0.01 µM
  relative viability: 1.27
[7]; first compound 0.03162 µM
  relative viability: 1.37
[7]; first compound 0.1 µM
  relative viability: 1.6
[7]; first compound 0.3162 µM
  relative viability: 1.36
[7]; first compound 1 µM
  relative viability: 1.22
[8]; first compound 0.01 µM
  relative viability: 0.586
[8]; first compound 0.03162 µM
  relative viability: 0.75
[8]; first compound 0.1 µM
  relative viability: 0.558
[8]; first compound 0.3162 µM
  relative viability: 0.641
[8]; first compound 1 µM
  relative viability: 0.528
[9]; first compound 0.01 µM
  relative viability: 1.38
[9]; first compound 0.03162 µM
  relative viability: 1.24
[9]; first compound 0.1 µM
  relative viability: 1.24
[9]; first compound 0.3162 µM
  relative viability: 1.28
[9]; first compound 1 µM
  relative viability: 0.899
[10]; first compound 0.01 µM
  relative viability: 0.918
[10]; first compound 0.03162 µM
  relative viability: 0.841
[10]; first compound 0.1 µM
  relative viability: 0.8
[10]; first compound 0.3162 µM
  relative viability: 0.732
[10]; first compound 1 µM
  relative viability: 0.36
[11]; first compound 0.01 µM
  relative viability: 1.19
[11]; first compound 0.03162 µM
  relative viability: 1.15
[11]; first compound 0.1 µM
  relative viability: 1.29
[11]; first compound 0.3162 µM
  relative viability: 1.14
[11]; first compound 1 µM
  relative viability: 1.04
[12]; first compound 0.01 µM
  relative viability: 1.26
[12]; first compound 0.03162 µM
  relative viability: 1.29
[12]; first compound 0.1 µM
  relative viability: 1.23
[12]; first compound 0.3162 µM
  relative viability: 1.22
[12]; first compound 1 µM
  relative viability: 1.2
[13]; first compound 0.01 µM
  relative viability: 0.841
[13]; first compound 0.03162 µM
  relative viability: 0.866
[13]; first compound 0.1 µM
  relative viability: 0.979
[13]; first compound 0.3162 µM
  relative viability: 0.884
[13]; first compound 1 µM
  relative viability: 0.541
[14]; first compound 0.01 µM
  relative viability: 0.958
[14]; first compound 0.03162 µM
  relative viability: 0.963
[14]; first compound 0.1 µM
  relative viability: 1.31
[14]; first compound 0.3162 µM
  relative viability: 1.25
[14]; first compound 1 µM
  relative viability: 1.01
[15]; first compound 0.01 µM
  relative viability: 1.02
[15]; first compound 0.03162 µM
  relative viability: 1.06
[15]; first compound 0.1 µM
  relative viability: 1.06
[15]; first compound 0.3162 µM
  relative viability: 1.03
[15]; first compound 1 µM
  relative viability: 1.07
[16]; first compound 0.01 µM
  relative viability: 1.15
[16]; first compound 0.03162 µM
  relative viability: 1.13
[16]; first compound 0.1 µM
  relative viability: 1.29
[16]; first compound 0.3162 µM
  relative viability: 0.974
[16]; first compound 1 µM
  relative viability: 1.06
[17]; first compound 0.01 µM
  relative viability: 0.827
[17]; first compound 0.03162 µM
  relative viability: 0.785
[17]; first compound 0.1 µM
  relative viability: 0.855
[17]; first compound 0.3162 µM
  relative viability: 0.951
[17]; first compound 1 µM
  relative viability: 1.02
[18]; first compound 0.01 µM
  relative viability: 1.02
[18]; first compound 0.03162 µM
  relative viability: 0.968
[18]; first compound 0.1 µM
  relative viability: 1.07
[18]; first compound 0.3162 µM
  relative viability: 0.939
[18]; first compound 1 µM
  relative viability: 0.834
[19]; first compound 0.01 µM
  relative viability: 0.912
[19]; first compound 0.03162 µM
  relative viability: 1.02
[19]; first compound 0.1 µM
  relative viability: 0.919
[19]; first compound 0.3162 µM
  relative viability: 0.797
[19]; first compound 1 µM
  relative viability: 0.656
